These results are taken from patent US5859007A, “CCK or gastrin modulating benzo [b][1,4] diazepines derivatives” (Glaxo Wellcome Inc., priority 1994, dated 1999).

Molecules are shown by their SMILES.

For the assay, the system named is isolated guinea pig gallbladder. Description: Functional activity in isolated guinea pig gallbladder preparation. Format: cell-based. The following applies: expressed as % CCK-induced maximal response; for activation at 1 µM / activation at 30 µM: Cavia porcellus; for activation at 1 µM / %Contraction (1 × 10^-6 M): 1 × 10^-6 M test compound; for activation at 1 µM: read-out: %Contraction (1 × 10^-6 M); for activation at 30 µM / % Contraction (3 × 10^-5 M): 3 × 10^-5 M test compound; for activation at 30 µM: read-out: % Contraction (3 × 10^-5 M). The method, then: 3. GUINEA PIG GALL BLADDER ASSAY
Gallbladders are removed from guinea pigs sacrificed by cervical dislocation. The isolated gallbladders are cleaned of adherent connective tissue and cut into two rings from each animal (2-4 mm in length). The rings are subsequently suspended in organ chambers containing a physiological salt solution (118.4 mM NaCl, 4.7 mM KCl, 1.2 mM MgSO4, 2.5 mM CaCl2, 1.2 mM KH2 […], 25 mM NaHCO3, 11.1 mM dextrose). The bathing solution is maintained at 37° C. and aerated with 95% O2 /5% CO2. Tissues are connected via gold chains and stainless steel mounting wires to isometric force displacement transducers (Grass, Model FT03 D). Responses are then recorded on a polygraph (Grass, Model 7E).
Rings are gradually stretched (over a 120 min. period) to a basal resting tension of 1 gm which is maintained throughout the experiment. During the basal tension adjustment period, the rings are exposed to acetylcholine (10^-6 M) four times to verify tissue contractility. The tissues are then exposed to a submaximal dose of sulfated CCK-8 (Sigma, 3×10^-9 M). After obtaining a stable response, the tissues are washed out 3 times rapidly and every 5 to 10 minutes for 1 hour to reestablish a stable baseline.
Compounds are dissolved in dimethylsulfoxide ([…]) followed by a concentration-response curve to sulfated CCK-8 (10^-10 to 10^-6 M) in the presence of the highest dose of the test compound. As a final test, ACH (10 mM) is added to induce maximal contraction. A minimum of three determinations of activity are made for each test compound.

On to `COc1ccc(N(C(=O)CN2C(=O)C(C)(Cc3csc4ccccc34)C(=O)N(c3ccccc3)c3ccccc32)C(C)C)cc1` (stereo not drawn) [Example 40, 2-(3-Benzo[b]thiophen-3-ylmethyl-3-methyl-2,4-dioxo-5-phenyl-2,3,4,5-tetrahydro-benzo[b][1,4]diazepin-1-yl)-N-isopropyl-N-(4-methoxy-phenyl) acetamide], for which the activation at 1 µM was determined as 10%. `COc1ccc(N(C(=O)CN2C(=O)C(Cc3n[nH]c4ccccc34)(OC)C(=O)N(c3cccnc3)c3ccccc32)C(C)C)cc1` (stereo not drawn) [Example 53, 2-[3-(1H-Indazol-3-ylmethyl)-3-methoxy-2,4-dioxo-5-pyridin-3-yl-2,3,4,5-tetrahydro-benzo[b][1,4]diazepin-1-yl]-N-isopropyl-N-(4-methoxy-phenyl)-acetamide]: the activation at 1 µM turned out to be 96% and the activation at 30 µM amounted to 103%. As for `COc1ccc(N(C(=O)CN2C(=O)C(C)(Cc3nn(C)c4ccccc34)C(=O)N(c3ccccc3)c3ccccc32)C(C)C)cc1` (stereo not drawn) [Example 45, N-Isopropyl-N-(4-methoxy-phenyl)-2-[3-(1-methyl-1H-indazol-3-ylmethyl)-3-methyl-2,4-dioxo-5-phenyl-2,3,4,5-tetrahydro-benzo[b][1,4]diazepin-1-yl]acetamide], the activation at 1 µM was determined as 57%. Turning to `CCC1(CC(=O)Nc2ccccc2)C(=O)N(CC(=O)N(c2ccccc2)C(C)C)c2ccccc2N(c2ccccc2)C1=O` (stereo not drawn) [Example 16, 2-(3-Ethyl-2,4-dioxo-5-phenyl-3-phenylcarbamoylmethyl-2,3,4,5-tetrahydro-benzo[b][1,4]diazepin-1-yl)-N-isopropyl-N-phenyl-acetamide], the activation at 30 µM is 54%.

In the case of `CC(C)N(C(=O)CN1C(=O)C(C)(CC(=O)c2ccccc2)C(=O)N(c2ccccc2)c2ccccc21)c1ccccc1` (stereo not drawn) [Example 7, N-Isopropyl-2-[3-methyl-2,4-dioxo-3-(2-phenyl-2-oxoethyl)-5-phenyl-2,3,4,5-tetrahydro-benzo[b][1,4]diazepin-1-yl]-N-phenyl acetamide], the “%Contraction (1 × 10^-6 M)” value is 15%. Regarding `COc1ccc(N(C(=O)CN2C(=O)C(Cc3n[nH]c4ccccc34)(OC)C(=O)N(c3ccccc3)c3ccccc32)C(C)C)cc1` (stereo not drawn) [Example 43, 2-[3-(1H-Indazol-3-ylmethyl)-3-methoxy-2,4-dioxo-5-phenyl-2,3,4,5-tetrahydro-benzo[b][1,4]diazepin-1-yl]-N-isopropyl-N-(4-methoxy-phenyl) acetamide], the activation at 30 µM is 61%. As for `Cc1ccc(N(C(=O)CN2C(=O)C(Cc3n[nH]c4cc(F)ccc34)C(=O)N(c3ccccc3)c3ccccc32)C(C)C)cc1` (stereo not drawn) [Example 60, 2-[3-(6-Fluoro-1H-indazol-3-ylmethyl)-2,4-dioxo-5-phenyl-2,3,4,5,tetrahydro-benzo[b][1,4]diazepin-1-yl]-N-isopropyl-N-p-tolyl-acetamide], the activation at 1 µM was 94% and the activation at 30 µM was 81%.

In the case of `COc1ccc(N(C(=O)CN2C(=O)C(Cc3nccn3-c3ccccc3)C(=O)N(c3ccccc3)c3ccccc32)C(C)C)cc1` (stereo not drawn) [Example 46, 2-(2,4-Dioxo-5-phenyl-3-(1-phenyl-imidazo-2-yl)methyl-2,3,4,5-tetrahydro-benzo[b][1,4]diazepin-1-yl)-N-isopropyl-N-(4-methoxy)-phenyl acetamide], the activation at 1 µM was 6% and the activation at 30 µM turned out to be 6%. In the case of `COc1ccc(N(C(=O)CN2C(=O)C(C)(Cc3n[nH]c4ccccc34)C(=O)N(c3cccnc3)c3ccccc32)C(C)C)cc1` (single isomer, unassigned) [Example 75, 2-[3-(1H-indazol-3-ylmethyl)-3-methyl-2,4-dioxo-5-pyridin-3-yl-2,3,4,5-tetrahydro-benzo[b][1,4]diazepin-1-yl]-N-isopropyl-N-(4-methoxy-phenyl)-acetamide], the activation at 1 µM was found to be 102% and the activation at 30 µM was 82%. Regarding `COc1ccc(N(C(=O)CN2C(=O)C(C)(CC(=O)Nc3ccccc3)C(=O)N(c3ccccc3)c3ccccc32)C(C)C)cc1` (stereo not drawn) [Example 14, N-Isopropyl-N-(4-methoxy-phenyl)-2-(3-methyl-2,4-dioxo-5-phenyl-3-phenylcarbamoylmethyl-2,3,4,5-tetrahydro-benzo[b][1,4]diazepin-1-yl) acetamide], the activation at 30 µM worked out at 64%.

Consider `CC(C)N(C(=O)CN1C(=O)C(C)(Cc2cc3ccccc3[nH]2)C(=O)N(c2ccccc2)c2ccccc21)c1ccccc1` (stereo not drawn) [Example 18, 2-[3-(1H-indol-2-ylmethyl)-3-methyl-2,4-dioxo-5-phenyl-2,3,4,5-tetrahydro-benzo[b][1,4]diazepin-1-yl]-N-isopropyl-N-phenyl acetamide], for which the activation at 30 µM was 3%.

`CC(C)N(C(=O)CN1C(=O)C(CC(=O)Nc2cccc(C(=O)O)c2)C(=O)N(c2ccccc2)c2ccccc21)c1ccccc1` (stereo not drawn) [Example 2]: the activation at 30 µM came out at 94%. Consider `CC(C)N(C(=O)CN1C(=O)C(Cc2n[nH]c3cc(F)ccc23)C(=O)N(c2ccccc2)c2ccccc21)c1ccccc1` (stereo not drawn) [Example 69, 2-[3-(6-Fluoro-1H-indazol-3-ylmethyl)-2,4-dioxo-5-phenyl-2,3,4,5-tetrahydro-benzo[b][1,4]diazepin-1-yl]-N-isopropyl-N-phenyl-acetamide], for which the activation at 1 µM was found to be 98% and the activation at 30 µM stood at 92%.

With `CC(C)N(C(=O)CN1C(=O)C(C)(CC(=O)Nc2ccccc2)C(=O)N(c2ccccc2)c2ccccc21)c1ccccc1` (stereo not drawn) [Example 4, 2-(2,4-Dioxo-5-phenyl-3-methyl-3-phenylcarbamoylmethyl-2,3,4,5-tetrahydro-benzo[b][1,4]diazepin-1-yl)-N-isopropyl-N-phenyl acetamide], the activation at 1 µM came to 80% and the activation at 30 µM was 79%. Turning to `COc1ccc(N(C(=O)CN2C(=O)C(Cc3csc4ccccc34)C(=O)N(c3ccccc3)c3ccccc32)C(C)C)cc1` (stereo not drawn) [Example 37, 2-(3-Benzo[b]thiophen-3-ylmethyl-2,4-dioxo-5-phenyl-2,3,4,5-tetrahydro-benzo[b][1,4]diazepin-1-yl)-N-isopropyl-N-(4-methoxy-phenyl) acetamide], the activation at 1 µM came out at 46%. Turning to `O=C1C(Cc2n[nH]c3ccccc23)C(=O)N(c2ccccc2)c2ccccc2N1CC(=O)N(c1ccccc1)C1CC1` (stereo not drawn) [Example 61, N-Cyclopropyl-2-[3-(1H-indazol-3-ylmethyl)-2,4-dioxo-5-phenyl-2,3,4,5,tetrahydro-benzo[b][1,4]diazepin-1-yl]-N-phenyl-acetamide], the activation at 1 µM came to 63% and the activation at 30 µM was found to be 77%. Consider `COc1ccc(N(C(=O)CN2C(=O)C(Cc3n[nH]c4ccccc34)C(=O)N(c3cccnc3)c3ccccc32)C(C)C)cc1` (single isomer, unassigned; (-)) [Example 73, (-)-2-[3-(1H-Indazol-3-ylmethyl)-2,4-dioxo-5-pyridin-3-yl-2,3,4,5-tetrahydrobenzo[b][1,4]diazepin-1-yl]-N-isopropyl-N-(4-methoxyphenyl) acetamide], for which the “%Contraction (1 × 10^-6 M)” value is listed as 58% and the “% Contraction (3 × 10^-5 M)” value turned out to be 64%. On to `COc1ccc(N(C(=O)CN2C(=O)C(C)(Cc3cn(C)c4ccccc34)C(=O)N(c3ccccc3)c3ccccc32)C(C)C)cc1` (stereo not drawn) [Example 24, 2-[3-(N-methyl-indol-3-ylmethyl)-3-methyl-2,4-dioxo-5-phenyl-2,3,4,5-tetrahydro-benzo[b][1,4]diazepin-1-yl]-N-isopropyl-N-(4-methoxy-phenyl) acetamide], for which the activation at 30 µM was 34%. Take `CC(C)N(C(=O)CN1C(=O)C(C)(CCCC(=O)Nc2ccccc2)C(=O)N(c2ccccc2)c2ccccc21)c1ccccc1` (stereo not drawn) [Example 15, N-Isopropyl-N-phenyl-2-(3-methyl-2,4-dioxo-5-phenyl-3-phenylcarbamoylpropyl-2,3,4,5-tetrahydro-benzo[b][1,4]diazepin-1-yl) acetamide]: the activation at 1 µM is 54%. Turning to `COc1ccc(N(C(=O)CN2C(=O)C(C)(Cc3n[nH]c4ccccc34)C(=O)N(c3cccnc3)c3ccccc32)C(C)C)cc1` (stereo not drawn) [Example 76, 2-[3-(1H-indazol-3-ylmethyl)-3-methyl-2,4-dioxo-5-pyridin-3-yl-2,3,4,5-tetrahydro-benzo[b][1,4]diazepin-1-yl]-N-isopropyl-N-(4-methoxy-phenyl)-acetamide], the “%Contraction (1 × 10^-6 M)” value was 93% and the “% Contraction (3 × 10^-5 M)” value stood at 95%. As for `COc1ccc(N(C(=O)CN2C(=O)C(Cc3noc4ncccc34)C(=O)N(c3ccccc3)c3ccccc32)C(C)C)cc1` (stereo not drawn) [Example 48, N-Isopropyl-2-(3-isoxazolo[5,4-b]pyridin-3-ylmethyl-2,4-dioxo-5-phenyl-2,3,4,5-tetrahydro-benzo[b][1,4]diazepin-1-yl)-N-(4-methoxy-phenyl) acetamide], the activation at 30 µM turned out to be 75%.
